In the supplement of paper PMC10307832:

What was measured:
Assay in all cases: relative viability (nuclei count vs DMSO), 5 days (fraction); higher = more cells survive
RU-SKI 43 + Luminespib = compound: CC[C@@H](C)CNCC(=O)N1CCC2=C([C@@H]1COC3=CC=CC(=C3)C)C=CS2 [RU-SKI 43] + CCNC(=O)c1noc(-c2cc(C(C)C)c(O)cc2O)c1-c1ccc(CN2CCOCC2)cc1 [Luminespib] (partner 0.01 µM)
Method in brief: (§1)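 For relative viability, nuclei counts in treated wells were divided by those in vehicle wells. Lung cancer cell lines had been pin-tool dosed in 1536-well plates the day after seeding and cultured for 5 days, then fixed and stained in one step (final 0.05% Triton X-100, 1% formaldehyde, 1 ug/ml Hoechst) and imaged at 4×. Doses were one drug alone or a fixed anchor-drug dose plus five library-drug doses (not always all listed) in √10 steps, and values are duplicate-plate medians.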

RU-SKI 43 + Pemetrexed = compound: CC[C@@H](C)CNCC(=O)N1CCC2=C([C@@H]1COC3=CC=CC(=C3)C)C=CS2 [RU-SKI 43] + Nc1nc2[nH]cc(CCc3ccc(C(=O)N[C@@H](CCC(=O)O)C(=O)O)cc3)c2c(=O)[nH]1 [Pemetrexed] (partner 0.2 µM)
Method in brief: as §1

Irinotecan + Foretinib = compound: CCc1c2c(nc3ccc(OC(=O)N4CCC(N5CCCCC5)CC4)cc13)-c1cc3c(c(=O)n1C2)COC(=O)[C@]3(O)CC [Irinotecan] + COc1cc2c(Oc3ccc(NC(=O)C4(C(=O)Nc5ccc(F)cc5)CC4)cc3F)ccnc2cc1OCCCN1CCOCC1 [Foretinib] (partner 0.25 µM)
Method in brief: as §1

MK-8033 + OSI-027 = compound: Cn1cc(-c2cnc3ccc4ccc(CS(=O)(=O)NCc5ccccn5)cc4c(=O)c3c2)cn1 [MK-8033] + COc1cccc2cc(-c3nc([C@H]4CC[C@H](C(=O)O)CC4)n4ncnc(N)c34)[nH]c12 [OSI-027] (partner 0.5 µM)
Method in brief: as §1

Cell Line	relative viability (RU-SKI 43 + Luminespib; first compound 0.1 µM)	relative viability (RU-SKI 43 + Luminespib; first compound 0.3162 µM)	relative viability (RU-SKI 43 + Luminespib; first compound 1 µM)	relative viability (RU-SKI 43 + Luminespib; first compound 3.162 µM)	relative viability (RU-SKI 43 + Luminespib; first compound 10 µM)	relative viability (RU-SKI 43 + Pemetrexed; first compound 0.1 µM)	relative viability (RU-SKI 43 + Pemetrexed; first compound 0.3162 µM)	relative viability (RU-SKI 43 + Pemetrexed; first compound 1 µM)	relative viability (RU-SKI 43 + Pemetrexed; first compound 3.162 µM)	relative viability (RU-SKI 43 + Pemetrexed; first compound 10 µM)	relative viability (Irinotecan + Foretinib; first compound 0.6325 µM)	relative viability (Irinotecan + Foretinib; first compound 2 µM)	relative viability (Irinotecan + Foretinib; first compound 6.325 µM)	relative viability (Irinotecan + Foretinib; first compound 20 µM)	relative viability (MK-8033 + OSI-027; first compound 0.02 µM)	relative viability (MK-8033 + OSI-027; first compound 0.06325 µM)	relative viability (MK-8033 + OSI-027; first compound 0.2 µM)	relative viability (MK-8033 + OSI-027; first compound 0.6325 µM)	relative viability (MK-8033 + OSI-027; first compound 2 µM)
NCI-H2347	0.443	0.717	0.639	0.357	0.35	0.404	0.513	0.431	0.52	0.538	0.53	0.662	0.41	0.665	0.395	0.399	0.406	0.454	0.422
201T	1.06	1.06	1.04	1.06	1.03	0.374	0.311	0.307	0.358	0.321		0.991	0.53	0.151	0.767	0.703	0.683	0.675	0.817
NCI-H1650	0.185	0.191	0.226	0.205	0.206	0.344	0.37	0.439	0.377	0.322		0.956	0.432	0.446	0.677	0.404	0.568	0.644	0.485
NCI-H1734	0.177	0.17	0.223	0.192	0.168	0.44	0.406	0.426	0.41	0.407		0.52	0.193	0.187	0.59	0.508	0.612	0.632	0.547
SW 1573	0.223	0.203	0.246	0.154	0.308	0.674	0.942	0.991	0.867	0.759	0.848	0.786	0.463	0.195	0.818	0.529	0.544	0.603	0.513
NCI-H1993	0.714	0.813	0.982	1.02	0.825	0.59	0.625	0.558	0.624	0.465	0.769	0.663	0.706	0.644	0.519	0.583	0.561	0.598	0.527
NCI-H1755	0.5	0.3	0.515	0.472	0.301	0.374	0.466	0.378	0.377	0.637	0.9	0.667	0.35	0.462	0.625	0.676	0.681	0.717	0.822
PC-14	0.146	0.143	0.126	0.157	0.159	0.132	0.13	0.133	0.151	0.13	0.935	0.806	0.431	0.189	0.835	0.742	0.828	0.773	0.73
NCI-H358	0.59	0.292	0.252	0.389	0.307	0.169	0.189	0.17	0.176	0.176	0.563	0.476	0.195	0.134	0.799	0.64	0.613	0.812	0.58
LK-2	0.182	0.168	0.171	0.189	0.177	0.362	0.343	0.347	0.245	0.304	1.25	0.329	0.305	0.283	0.202	0.227	0.22	0.189	0.276
HCC-827	0.77	0.795	0.588	0.612	0.679	0.289	0.267	0.264	0.265	0.253	0.637	0.324	0.207	0.175	0.774		0.735	0.801	0.758
LCLC-97TM1	0.902	0.927	0.876	0.898	0.85	0.188	0.175	0.19	0.184	0.178	0.435	0.172	0.151	0.194	0.519	0.456	0.431	0.592	0.568
EMC-BAC-2	1.18	1.26	1.32	1.16	1.19	0.441	0.401	0.455	0.428	0.443	0.691	0.379	0.274	0.44	0.384	0.408	0.395	0.375	0.386
NCI-H647	0.163	0.325	0.236	0.123	0.221	0.169	0.178	0.199	0.169	0.169	0.986	0.742	0.174	0.132	0.69	0.723	0.534	0.46	0.582
NCI-H1944	0.643	0.751	0.832	0.819	0.662	0.614	0.711	0.566	0.619	0.707	0.655	0.351	0.198	0.18	0.436	0.292	0.4	0.4	0.404
